We go through 25 compounds from patent publication US20100041891A1, “AMIDE COMPOUND” (Takeda Pharmaceutical Company Limited, priority 2008, published 2010).

Data set [1] concerns methamphetamine-induced locomotor hyperactivity in mice. Put plainly: Inhibition of methamphetamine-induced locomotor hyperactivity. The class given is in vivo. The settings on record: male ICR mice, test compound 30 mg/kg orally, 60 min later methamphetamine 2 mg/kg subcutaneous, locomotor activity 90 min after methamphetamine, versus vehicle group. The method, then:
Compounds of the present invention can be evaluated by assessing the inhibition of methamphetamine-induced locomotor hyperactivity in mice. The method of Okuyama et al was modified to test the inhibition of methamphetamine-induced locomotor hyperactivity (Life Science, Vol. 65, pages 2109-2125 (1999)).
Locomotor activity was measured using a 32-channel locomotor activity measurement device MDC-LT (by BrainScience Idea Co., Ltd.), which emits infrared beams from the top of a cage (30×40×20 cm). 6- to 8-week old male ICR mice were acclimated for at least 45 min in the measurement cages, and then either test compound (30 mg/kg) dissolved in vehicle (0.5% methylcellulose aqueous solution) or the vehicle alone were orally administered. This oral administration was followed 60 min later by subcutaneous administration of methamphetamine (2 mg/kg).
90 min after administration of methamphetamine, the number of times the laboratory animals passed through the infrared beams emitted inside the measurement cages was measured to quantify locomotor activity. The following equation was used to calculate the rate at which methamphetamine-induced locomotor hyperactivity was inhibited (activity inhibition rate (%)).
Activity inhibition rate (%)={1−(locomotor activity after treatment with methamphetamine in test compound treatment group÷locomotor activity after treatment with methamphetamine in vehicle treatment group)}×100

A further data set deals with T1, human GPR52 (Homo sapiens, UniProt Q9Y2T5).
T1 construct: expressed in transfected cells; host or cells: CHO (dhfr-) cells
T1 sequence (Q9Y2T5 whole entry): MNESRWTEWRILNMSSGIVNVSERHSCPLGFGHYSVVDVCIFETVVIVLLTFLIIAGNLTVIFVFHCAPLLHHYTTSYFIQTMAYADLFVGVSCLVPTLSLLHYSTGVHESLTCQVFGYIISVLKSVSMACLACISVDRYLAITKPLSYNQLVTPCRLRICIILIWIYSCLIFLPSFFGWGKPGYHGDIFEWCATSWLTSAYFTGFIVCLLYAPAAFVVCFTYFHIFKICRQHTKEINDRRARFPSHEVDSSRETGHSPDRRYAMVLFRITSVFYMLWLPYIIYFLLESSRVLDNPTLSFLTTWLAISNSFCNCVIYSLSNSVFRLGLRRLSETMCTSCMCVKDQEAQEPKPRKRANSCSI
Description: Increased intracellular cAMP levels in human GPR52 expression CHO cells. The settings on record: 1 μM test compound, 30 min at 37° C., human GPR52 expression CHO (dhfr-) cells; 100% = cAMP level with 1 μM Reference Example 136, 0% = DMSO. It counts as cell-based. The method, then:
Increased intracellular cAMP levels in human GPR52 expression CHO cells 1×10^4 human GPR52 expression CHO (dhfr-) cells were incubated with 1 μM test compound for 30 min at 37° C. in 30 μL assay buffer (HBSS (containing Ca^2+ and Mg^2+), 0.5% BSA, 100 μM IBMX, 100 μM Ro 20-1724, 5 mM HEPES (pH 7.55)) using an OptiPlate-384 (by PerkinElmer). The intracellular cAMP level was then assayed with an EnVision (by PerkinElmer) according to the protocol of the AlphaScreen cAMP Assay Kit (by PerkinElmer). The GPR52 agonist activity was calculated, assuming the intracellular cAMP level in the presence of 1 μM of 3-(6-(2-(3,4-dimethoxyphenyl)ethoxy)pyridine-2-yl)-N-(2-pyrrolidin-1-ylethyl)benzamide (Reference Example 136) to be 100% and assuming the intracellular cAMP level when DMSO was added instead of test compound to be 0%.

Molecules are shown by their SMILES.

As to `O=C(NCCO)c1cccc(-c2cccc3oc(Cc4cccc(C(F)(F)F)c4)cc23)c1` [Working Example 7, N-(2-Hydroxyethyl)-3-[2-[3-(trifluoromethyl)benzyl]-1-benzofuran-4-yl]benzamide], in data set [1], the “Activity Inhibition Rate (%)” value is on record as 89%. Besides, the “GPR52 agonist activity (%)” value on human GPR52 was 82%. As for `N#CCCNC(=O)c1ccnc(-c2cccc3oc(Cc4cccc(C(F)(F)F)c4)cc23)c1` [Working Example 21, N-(2-Cyanoethyl)-2-[2-[3-(trifluoromethyl)benzyl]-1-benzofuran-4-yl]isonicotinamide], on human GPR52, the “GPR52 agonist activity (%)” value worked out at 74%. As for `N#CCCNC(=O)c1cccc(-c2nccc3oc(Cc4cccc(C(F)(F)F)c4)cc23)c1` [Working Example 23, N-(2-Cyanoethyl)-3-[2-[3-(trifluoromethyl)benzyl]furo[3,2-c]pyridin-4-yl]benzamide], the “GPR52 agonist activity (%)” value on human GPR52 came to 75%. Same read-out and setting: the value for `N#CCCNC(=O)c1cccc(-c2cccc3nn(Cc4ccc(F)c(Cl)c4)cc23)c1` [Working Example 65, 3-[2-(3-Chloro-4-fluorobenzyl)-2H-indazol-4-yl]-N-(2-cyanoethyl)benzamide] was 75%.

As to `Cn1c(Cc2cccc(C(F)(F)F)c2)nc2c(-c3cccc(C(=O)NCCC#N)c3)cccc21` [Working Example 88, N-(2-Cyanoethyl)-3-[1-methyl-2-[3-(trifluoromethyl)benzyl]-1H-benzimidazol-4-yl]benzamide], the “Activity Inhibition Rate (%)” value in data set [1] stood at 37%. The “GPR52 agonist activity (%)” value on human GPR52 turned out to be 59%. As for `O=C(NCCO)c1cccc(-c2cccn3c(=O)n(Cc4cccc(C(F)(F)F)c4)nc23)c1` [Working Example 99, N-(2-Hydroxyethyl)-3-[3-oxo-2-[3-(trifluoromethyl)benzyl]-2,3-dihydro[1,2,4]triazolo[4,3-a]pyridin-8-yl]benzamide], the “GPR52 agonist activity (%)” value at human GPR52 is on record as 67%.

Take `COCCNC(=O)c1cccc(-c2ccc(F)c3cc(Cc4cccc(S(C)(=O)=O)c4)sc23)c1` [Working Example 159, 3-[4-Fluoro-2-[3-(methylsulfonyl)benzyl]-1-benzothiophen-7-yl]-N-(2-methoxyethyl)benzamide]: the “GPR52 agonist activity (%)” value on human GPR52 is reported as 80%. Still for that read-out and setting: the value for `NC(=O)CNC(=O)c1cccc(-c2cccc3sc(Cc4cccc(C(F)(F)F)c4)cc23)c1` [Working Example 165, N-(2-Amino-2-oxoethyl)-3-[2-[3-(trifluoromethyl)benzyl]-1-benzothiophen-4-yl]benzamide] was 108%; that for `NC(=O)CNC(=O)c1cccc(-c2cccc3cc(Cc4ccc(F)c(Cl)c4)sc23)c1` [Working Example 174, N-(2-Amino-2-oxoethyl)-3-[2-(3-chloro-4-fluorobenzyl)-1-benzothiophen-7-yl]benzamide] was 90%. With `COCCNC(=O)c1cccc(-c2cccc3cc(Cc4cc(F)cc(Cl)c4)sc23)c1` [Working Example 179, 3-[2-(3-Chloro-5-fluorobenzyl)-1-benzothiophen-7-yl]-N-(2-methoxyethyl)benzamide], at human GPR52, the “GPR52 agonist activity (%)” value is given as 89%. Same read-out and setting: the value for `NC(=O)c1cccc(-c2cccc3cc(COc4cccc(C(F)(F)F)c4)sc23)c1` [Working Example 184, 3-(2-[[3-(Trifluoromethyl)phenoxy]methyl]-1-benzothiophen-7-yl]benzamide] was 82%. For the compound `Cc1c(Cc2cccc(C(F)(F)F)c2)sc2c(-c3cccc(C(=O)NCCO)c3)cccc12` [Working Example 191, N-(2-Hydroxyethyl)-3-[3-methyl-2-[3-(trifluoromethyl)benzyl]-1-benzothiophen-7-yl]benzamide], in data set [1], the “Activity Inhibition Rate (%)” value is 65%. On human GPR52, the “GPR52 agonist activity (%)” value is recorded as 94%. As to `O=C(NCCO)c1ccnc(-c2cccc3cc(Cc4cccc(C(F)(F)F)c4)sc23)c1` [Working Example 198, N-(2-Hydroxyethyl)-2-[2-[3-(trifluoromethyl)benzyl]-1-benzothiophen-7-yl]pyridine-4-carboxamide], the “Activity Inhibition Rate (%)” value in data set [1] came out at 45%. Further, the “GPR52 agonist activity (%)” value at human GPR52 is 88%. Regarding `NC(=O)CNC(=O)c1cncc(-c2cccc3cc(Cc4cc(F)cc(Cl)c4)sc23)c1` [Working Example 221, N-(2-Amino-2-oxoethyl)-5-[2-(3-chloro-5-fluorobenzyl)-1-benzothiophen-7-yl]pyridine-3-carboxamide], the “GPR52 agonist activity (%)” value at human GPR52 stood at 81%. On the same count and under the same terms, the value for `O=C(NCCO)c1cccc(-c2cccc3cc(Cc4cc(F)cc(Cl)c4)sc23)n1` [Working Example 222, 6-[2-(3-Chloro-5-fluorobenzyl)-1-benzothiophen-7-yl]-N-(2-hydroxyethyl)pyridine-2-carboxamide] was 62%. For the compound `NC(=O)CNC(=O)c1cccc(-c2ccc(F)c3cc(Cc4cccc(C(F)(F)F)c4)sc23)c1` [Working Example 230, N-(2-Amino-2-oxoethyl)-3-[4-fluoro-2-[3-(trifluoromethyl)benzyl]-1-benzothiophen-7-yl]benzamide], the “Activity Inhibition Rate (%)” value in data set [1] is on record as 58%. Moreover, the “GPR52 agonist activity (%)” value at human GPR52 is listed as 85%. For `NC(=O)CNC(=O)c1cccc(-c2cccc3sc(Cc4cccc(C(F)(F)F)c4)nc23)c1` [Working Example 252, N-(2-Amino-2-oxoethyl)-3-[2-[3-(trifluoromethyl)benzyl]-1,3-benzothiazol-4-yl]benzamide], the “GPR52 agonist activity (%)” value at human GPR52 is 80%.

On to `O=C(NCCO)c1cccc(-c2ccnc3cc(Cc4cccc(C(F)(F)F)c4)sc23)c1` [Working Example 265, N-(2-hydroxyethyl)-3-[2-[3-(trifluoromethyl)benzyl]thieno[3,2-b]pyridin-7-yl]benzamide], for which the “GPR52 agonist activity (%)” value on human GPR52 came to 93%. For `O=C(NCCO)c1cc(F)cc(-c2ccc(F)c3cc(Cc4cccc(C(F)(F)F)c4)sc23)c1` [Working Example 271, 3-Fluoro-5-[4-fluoro-2-[3-(trifluoromethyl)benzyl]-1-benzothiophen-7-yl]-N-(2-hydroxyethyl)benzamide], the “GPR52 agonist activity (%)” value on human GPR52 stood at 94%. Same read-out and setting: the value for `CC(C)n1cc(Cc2cc3cccc(-c4cccc(C(=O)NCCO)c4)c3s2)ccc1=O` [Working Example 292, N-(2-Hydroxyethyl)-3-[2-[[1-(1-methylethyl)-6-oxo-1,6-dihydropyridin-3-yl]methyl]-1-benzothiophen-7-yl]benzamide] was 61%. Compound `O=C(O)CNC(=O)c1cccc(-c2cccc3oc(Cc4cccc(C(F)(F)F)c4)cc23)c1` [Working Example 303, N-[(3-[2-[3-(Trifluoromethyl)benzyl]-1-benzofuran-4-yl]phenyl)carbonyl]glycine] displayed a melting point of 89 to 94 °C. Take `O=C1NCc2c1cccc2-c1cccc2cc(Cc3cccc(C(F)(F)F)c3)sc12` [Working Example 326, 4-[2-[3-(Trifluoromethyl)benzyl]-1-benzothiophen-7-yl]-2,3-dihydro-1H-isoindole-1-one]: the “GPR52 agonist activity (%)” value on human GPR52 is listed as 92%. `CC(C)OCCNC(=O)c1cccc(-c2cccc3cc(Cc4cc(F)cc(Cl)c4)sc23)c1` [Working Example 360, 3-[2-(3-Chloro-5-fluorobenzyl)-1-benzothiophen-7-yl]-N-[2-(1-methylethoxy)ethyl]benzamide]: the “Activity Inhibition Rate (%)” value in data set [1] is reported as 41%. Besides, the “GPR52 agonist activity (%)” value on human GPR52 worked out at 79%. Regarding `NC(=O)CNC(=O)c1cccc(-c2cccc3c(F)c(Cc4cccc(C(F)(F)F)c4)sc23)c1` [Working Example 405, N-(2-Amino-2-oxoethyl)-3-[3-fluoro-2-[3-(trifluoromethyl)benzyl]-1-benzothiophen-7-yl]benzamide], on human GPR52, the “GPR52 agonist activity (%)” value was 113%. Same read-out and setting: the value for `O=C(NCCO)c1cccc(-c2cncc3cc(Cc4cccc(C(F)(F)F)c4)oc23)c1` [Working Example 413, N-(2-Hydroxyethyl)-3-[2-[3-(trifluoromethyl)benzyl]furo[3,2-c]pyridin-7-yl]benzamide] was 83%.
